Data taken from US11959083B2, “Immunosuppression-reverting oligonucleotides inhibiting the expression of CD39” (Secarna Pharmaceuticals GmbH & Co. KG, priority 2016, dated 2024).
l = locked nucleic acid (LNA); d = 2'-deoxy (DNA)

Experiments:
hCD39 mRNA [1] = assay: hCD39 mRNA knockdown efficacy screen in A-172 cells (single dose, gymnotic delivery, QuantiGene Singleplex); format: cell-based, human; conditions: 10 μM, 3 days; for Mean hCD39 mRNA expression (relative to untreated cells set as 1): first screening round; for Mean hCD39 mRNA expression (relative to untreated cells set as 1) / Relative hCD39 mRNA expression (compared to non-treated cells): normalized to HPRT1; for Relative hCD39 mRNA expression (compared to non-treated cells): second screening round; for Residual hCD39 mRNA expression relative to untreated cells (set as 1): third screening round
Experimental: (§1) FIGS. 2A to 2D depict hCD39 mRNA knockdown efficacy of hCD39 antisense oligonucleotides in human cancer cell lines HDLM-2 (human Hodgkin Lymphoma) in a first and second screening round (FIGS. 2A-1 and 2A-2) and 2B-1 and 2B-2 and A-172 (human glioblastoma) in a first and second screening round (FIGS. 2C-1 and 2C-2) and 2D-1 and 2D-2. HDLM-2 and A-172 cells were treated for 3 days with 10 μM of the respective antisense oligonucleotide. As negative control, cells were treated with neg1, an antisense oligonucleotide having the sequence CGTTTAGGCTATGTACTT (SEQ ID NO:99) (described in WO2014154843 A1). Residual hCD39 mRNA expression relative to untreated cells is depicted. Expression values were normalized to expression of the housekeeping gene HPRT1. Depicted is the mean of triplicate wells+/−SD.
(§2) FIGS. 6A-6B depicts a third screening round where further antisense oligonucleotides were designed. These antisense oligonucleotides were based on efficient antisense oligonucleotides from the first and second screening round. Therefore, hCD39 antisense oligonucleotides were tested in human cancer cell lines HDLM-2 (human Hodgkin's lymphoma) (FIG. 6A) and A-172 (human glioblastoma) (FIG. 6B). HDLM-2 and A-172 cells were treated for 3 days with 10 μM of the respective antisense oligonucleotide. […] Residual hCD39 mRNA expression relative to untreated cells (set as 1) is depicted.
(§3) In order to analyze the efficacy of hCD39 antisense oligonucleotides of the present invention with regard to the knockdown of hCD39 mRNA expression in cancer cell lines, HDLM-2 (human Hodgkin Lymphoma, DSMZ) and A-172 (human glioblastoma, ATCC) cells were treated with a single dose (concentration: 10 μM without addition of any transfection reagent; this process is called gymnotic delivery) of the respective antisense oligonucleotide as shown in FIG. 2A to 2D. hCD39 and HPRT1 mRNA expression was analyzed three days later using the QuantiGene Singleplex assay (Affymetrix) and hCD39 expression values were normalized to HPRT1 values. […] Values of the mean normalized mRNA expression of hCD39 compared to non-treated cells are listed for A-172 (Table 4 for first screening round and Table 5 for second screening round) and HDLM-2 cells (Table 6 for first screening round and Table 7 for second screening round) in the following:
(§4) For a third screening round, new antisense oligonucleotides were designed. These antisense oligonucleotides were based on efficient antisense oligonucleotides from the first screening round with modifications in length, exact position on mRNA and chemical modification pattern. Therefore, hCD39 antisense oligonucleotides were tested in human cancer cell lines (FIG. 6A, Table 10) HDLM-2 (human Hodgkin's lymphoma) and (FIG. 6B, Table 11) A-172 (human glioblastoma). HDLM-2 and A-172 cells were treated for 3 days with 10 μM of the respective antisense oligonucleotide. […] Residual hCD39 mRNA expression relative to untreated cells (set as 1) is depicted.

hCD39 mRNA [2] = assay: hCD39 mRNA knockdown efficacy screen in HDLM-2 cells (single dose, gymnotic delivery, QuantiGene Singleplex); format: cell-based, human; parameters: key to Relative hCD39 mRNA expression (compared to non-treated cells): *: values are below detection limit; conditions: 10 μM, 3 days; for Mean hCD39 mRNA expression normalized to HPRT1 relative to untreated control = 1: first screening round; for Relative hCD39 mRNA expression (compared to non-treated cells): second screening round, normalized to HPRT1; for Residual hCD39 mRNA expression relative to untreated cells (set as 1): third screening round
Experimental: as §1, §2, §3, §4

Row | Substance | Mean hCD39 mRNA expression (relative to untreated cells set as 1) (hCD39 mRNA [1]) | Relative hCD39 mRNA expression (compared to non-treated cells) (hCD39 mRNA [1]) | Mean hCD39 mRNA expression normalized to HPRT1 relative to untreated control = 1 (hCD39 mRNA [2]) | Relative hCD39 mRNA expression (compared to non-treated cells) (hCD39 mRNA [2]) | Residual hCD39 mRNA expression relative to untreated cells (set as 1) (hCD39 mRNA [1]) | Residual hCD39 mRNA expression relative to untreated cells (set as 1) (hCD39 mRNA [2])
1 | +T*+G*+A*T*A*G*C*C*T*T*G*C*+A*+G*+A (antisense TGATAGCCTTGCAGA; sugars from the 5' end l3 d9 l3, all phosphorothioate, methylation of C not given here) [A04014H] | 0.27 | 0.27 | 0.17 | 0.17 | – | –
2 | +C*+T*+A*T*G*C*T*G*A*A*C*C*+A*+C*+C (antisense CTATGCTGAACCACC; sugars from the 5' end l3 d9 l3, all phosphorothioate, methylation of C not given here) [A04005H] | 0.11 | 0.11 | 0.21 | 0.21 | – | –
3 | +G*+C*+C*C*T*G*A*T*G*T*T*T*G*+A*+A*+T (antisense GCCCTGATGTTTGAAT; sugars from the 5' end l3 d10 l3, all phosphorothioate, methylation of C not given here) [A04054H] | – | – | – | – | 0.60 | 0.13
4 | +A*+C*+G*T*T*C*A*C*T*A*C*C*T*T*+C*+T*+T (antisense ACGTTCACTACCTTCTT; sugars from the 5' end l3 d11 l3, all phosphorothioate, methylation of C not given here) [A04043H] | 0.21 | 0.11 | 0.04 | * | – | –
5 | +A*+C*+T*C*C*A*C*A*C*T*A*A*T*+G*+C*+T (antisense ACTCCACACTAATGCT; sugars from the 5' end l3 d10 l3, all phosphorothioate, methylation of C not given here) [A04037H] | 0.17 | 0.09 | 0.12 | 0.10 | – | –
6 | +C*+T*+G*A*C*T*G*A*A*T*T*T*G*+C*+C*+C (antisense CTGACTGAATTTGCCC; sugars from the 5' end l3 d10 l3, all phosphorothioate, methylation of C not given here) [A04021H] | 0.16 | 0.16 | 0.11 | 0.11 | – | –
7 | +A*+G*T*C*C*A*G*C*C*G*G*C*G*T*+C (antisense AGTCCAGCCGGCGTC; sugars from the 5' end l2 d12 l1, all phosphorothioate, methylation of C not given here) [A04015H] | – | 1.05 | 0.29 | 0.29 | – | –
8 | +T*+A*+G*T*A*A*G*C*C*C*T*G*+A*+T*+G (antisense TAGTAAGCCCTGATG; sugars from the 5' end l3 d9 l3, all phosphorothioate, methylation of C not given here) [A04055H] | – | – | – | – | 0.52 | 0.03
9 | +A*+G*G*A*T*A*G*T*C*T*T*G*T*C*+T*+C (antisense AGGATAGTCTTGTCTC; sugars from the 5' end l2 d12 l2, all phosphorothioate, methylation of C not given here) [A04034H] | 0.28 | 0.15 | 0.06 | 0.06 | – | –
